According to patent US20080194585A1, “Fungicidal Pyrazine Derivatives” (priority 2005, published 2008):
Like-named read-outs stand apart in the source and are kept apart here.

How the values were obtained:
[1] = test system: Phytophthora infestans; assay: whole plant or invertebrate; type: in vivo; settings: for pest or weed control at 200 ppm / pest or weed control at 40 ppm: Phytophthora infestans, in Solanum lycopersicum, topical, 144 h, read-out: Test F disease control rating; for Test F disease control rating: 200 ppm, 100 = 100% disease control, 0 = no control
[2] = test system: Colletotrichum orbiculare; assay: Test B: cucumber Colletotrichum anthracnose, preventive spray on cucumber seedlings; settings: for Test B disease control rating: 200 ppm
[3] = test system: Botrytis cinerea; assay: Test E: tomato botrytis, preventive spray on tomato seedlings; settings: for Test E disease control rating: 200 ppm, 100 = 100% disease control, 0 = no control
[4] = test system: Septoria tritici; assay: Test J: wheat leaf blotch, preventive spray on wheat seedlings; type: in vivo
Description: A dash (-) indicates no test results.

[5] = test system: Rhizoctonia oryzae; assay: Test G: turf brown patch, preventive spray on creeping bent grass seedlings; settings: for Test G disease control rating: 200 ppm
Description: (the causal agent of turf brown patch) and incubated in a saturated atmosphere at 27° C. for 24 h, and then moved to a growth chamber at 27° C. for 5 days, after which disease ratings were made.

[6] = test system: fusarium graminearium; assay: Test I: wheat head scab, preventive spray on wheat seedlings; settings: for pest or weed control at 200 ppm / pest or weed control at 40 ppm: Fusarium, in Triticum aestivum, topical, 192 h; for pest or weed control at 200 ppm: read-out: Test I disease control rating, 200 ppm; for Test I disease control rating: 200 ppm
Description: (the causal agent of wheat head scab) and incubated in a saturated atmosphere at 20° C. for 72 h, and then moved to a growth chamber at 22° C. for 5 days, after which disease ratings were made.

[7] = test system: Erysiphe graminis f. sp. tritici; assay: Test L: wheat powdery mildew, preventive spray on wheat seedlings; settings: for Test L disease control rating: 200 ppm
[8] = test system: Pythium aphanidermatum; assay: Test A: bluegrass pythium blight, preventive spray on bluegrass seedlings; settings: for pest or weed control at 200 ppm / pest or weed control at 40 ppm: Pythium aphanidermatum, 120 h, read-out: Test A disease control rating; for Test A disease control rating: 200 ppm, 100 = 100% disease control, 0 = no control
[9] = test system: Plasmopara viticola; assay: Test D: grape downy mildew, spray after inoculation of grape seedlings; type: in vivo; settings: for pest or weed control at 200 ppm / pest or weed control at 40 ppm: Plasmopara viticola, 168 h, read-out: Test D disease control rating; for pest or weed control at 200 ppm / Test D disease control rating: 200 ppm
Description: Upon removal, disease ratings were made. […] A dash (-) indicates no test results.

[10] = test system: Puccinia recondita f. sp. tritici; assay: Test K: wheat leaf rust, preventive spray on wheat seedlings; settings: for Test K disease control rating: 200 ppm, 100 = 100% disease control, 0 = no control
[11] = test system: Septoria nodorum; assay: Test H: wheat glum blotch, preventive spray on wheat seedlings; settings: for Test H disease control rating: 200 ppm
Description: (the causal agent of wheat glum blotch) and incubated in a saturated atmosphere at 20° C. for 48 h, and then moved to a growth chamber at 22° C. for 5 days, after which disease ratings were made.

[12] = test system: Sclerotinia sclerotiorum; assay: Test C: cucumber white mold, preventive spray on cucumber seedlings; settings: for pest or weed control at 40 ppm: Sclerotinia sclerotiorum, in Cucumis sativus, 168 h; for Test C disease control rating: 200 ppm
[13] = Colletotrichum orbiculare, in Cucumis sativus, 144 h, read-out: Test B disease control rating, 40 ppm (*)
[14] = Botrytis cinerea, in Solanum lycopersicum, topical, 72 h, read-out: Test E disease control rating
[15] = Zymoseptoria tritici, 528 h, 40 ppm (*), read-out: Test J disease control rating
[16] = Waitea circinata, in Agrostis stolonifera, topical, 144 h, read-out: Test G disease control rating, 40 ppm (*)
[17] = Blumeria graminis, in Triticum aestivum, 168 h, read-out: Test L disease control rating, 40 ppm (*)
[18] = Puccinia recondita, in Triticum aestivum, 192 h, read-out: Test K disease control rating
[19] = Parastagonospora nodorum, in Triticum aestivum, topical, 168 h, read-out: Test H disease control rating, 40 ppm (*)
[20] = Colletotrichum orbiculare, in Cucumis sativus, 144 h, read-out: Test B disease control rating, 40 ppm (marked *), 100 = 100% disease control, 0 = no control
[21] = Zymoseptoria tritici, 528 h, 40 ppm (marked *), 100 = 100% disease control, 0 = no control, read-out: Test J disease control rating
[22] = Waitea circinata, in Agrostis stolonifera, topical, 144 h, read-out: Test G disease control rating, 40 ppm (marked *), 100 = 100% disease control, 0 = no control
[23] = read-out: Test I disease control rating, 40 ppm (marked *), 100 = 100% disease control, 0 = no control
[24] = Blumeria graminis, in Triticum aestivum, 168 h, read-out: Test L disease control rating, 40 ppm (marked *), 100 = 100% disease control, 0 = no control
[25] = 40 ppm (marked *), 100 = 100% disease control, 0 = no control
[26] = Parastagonospora nodorum, in Triticum aestivum, topical, 168 h, read-out: Test H disease control rating, 40 ppm (marked *), 100 = 100% disease control, 0 = no control
[27] = 100 = 100% disease control, 0 = no control relative to controls
[28] = 100 = 100% disease control, 0 = no control
[29] = 200 ppm, 100 = 100% disease control, 0 = no control

SMILES | melting point | pest or weed control at 40 ppm [3, 14] | pest or weed control at 40 ppm [10, 18] | pest or weed control at 40 ppm [8] | Test F disease control rating [1] | Test B disease control rating [2, 28] | Test E disease control rating [3] | Test J disease control rating [4, 29] | Test G disease control rating [5, 28] | Test I disease control rating [6, 28] | Test C disease control rating [12, 28] | Test L disease control rating [7, 28] | Test A disease control rating [8] | Test D disease control rating [9, 28] | Test K disease control rating [10] | Test H disease control rating [11, 28] | other results
Cc1nc(-n2cccn2)c(=O)n(CC(C)C)c1-c1c(F)cccc1F [Compound 149, 5-Methyl-6-(2,6-difluorophenyl)-1-(2-methylpropyl)-3-(1H-pyrazol-1-yl)-2(1H)-pyrazinone] | 105 to 106 °C | 100% | 100% |  |  |  |  |  |  |  |  |  |  |  |  |  | pest or weed control at 200 ppm [1]: 0%; pest or weed control at 40 ppm [2, 13]: 0%; pest or weed control at 40 ppm [4, 15]: 100%; pest or weed control at 40 ppm [5, 16]: 99%; pest or weed control at 200 ppm [6]: 0%; pest or weed control at 40 ppm [7, 17]: 100%; pest or weed control at 200 ppm [8]: 0%; pest or weed control at 200 ppm [9]: 0%; pest or weed control at 40 ppm [11, 19]: 98%
CC[C@H](C)Cn1c(-c2c(F)cc(F)cc2F)c(Cl)nc(-n2cccn2)c1=O [Compound 155, 5-Chloro-1-[(2S)-2-methylbutyl)-3-(1H-pyrazol-1-yl)-6-(2,4,6-trifluorophenyl)-2(1H)-pyrazinone] | 112 to 113 °C | 100% | 100% | 0% |  |  |  |  |  |  |  |  |  |  |  |  | pest or weed control at 40 ppm [1]: 0%; pest or weed control at 40 ppm [2, 13]: 100%; pest or weed control at 40 ppm [4, 15]: 100%; pest or weed control at 40 ppm [5, 16]: 100%; pest or weed control at 40 ppm ([6]; read-out: Test I disease control rating, 40 ppm (*)): 0%; pest or weed control at 40 ppm ([12]; read-out: Test C disease control rating, 40 ppm (*)): 99%; pest or weed control at 40 ppm [7, 17]: 100%; pest or weed control at 40 ppm ([9]; 40 ppm (*)): 47%; pest or weed control at 40 ppm [11, 19]: 100%
COc1ccc(Cn2c(-c3c(F)cccc3F)c(Cl)nc(-n3cccn3)c2=O)cc1 [Compound 271, 5-Chloro-6-(2,6-difluorophenyl)-1-[(4-methoxyphenyl)methyl]-3-(1H-pyrazol-1-yl)-2(1H)-pyrazinone] | 235 to 236 °C | 0% | 32% | 0% |  |  |  |  |  |  |  |  |  |  |  |  | pest or weed control at 40 ppm [1]: 0%; pest or weed control at 40 ppm [2, 20]: 0%; pest or weed control at 40 ppm [4, 21]: 0%; pest or weed control at 40 ppm [5, 22]: 0%; pest or weed control at 40 ppm [6, 23]: 0%; pest or weed control at 40 ppm ([12]; read-out: Test C disease control rating, 40 ppm (marked *), 100 = 100% disease control, 0 = no control): 0%; pest or weed control at 40 ppm [7, 24]: 0%; pest or weed control at 40 ppm [9, 25]: 0%; pest or weed control at 40 ppm [11, 26]: 0%
O=c1c(-n2cccn2)nc(Cl)c(-c2c(F)ccc(F)c2F)n1-c1ccccc1 [Compound 357, 5-Chloro-1-phenyl-3-(1H-pyrazol-1-yl)-6-(2,3,6-trifluorophenyl)-2(1H)-pyrazinone] | 250 to 260 °C | 99% | 99% | 0% |  |  |  |  |  |  |  |  |  |  |  |  | pest or weed control at 40 ppm [2, 20]: 83%; pest or weed control at 40 ppm [4, 21]: 91%; pest or weed control at 40 ppm [5, 22]: 84%; pest or weed control at 40 ppm [6, 23]: 91%; pest or weed control at 40 ppm [7, 24]: 20%; pest or weed control at 40 ppm [9, 25]: 0%; pest or weed control at 40 ppm [11, 26]: 98%
CCC(C)Cn1c(-c2ccc(F)cc2F)c(C)nc(C#N)c1=N (stereo not shown) [Compound 426, 5-(2,4-Difluorophenyl)-3,4-dihydro-3-imino-6-methyl-4-(2-methylbutyl)pyrazinecarbonitrile] | 73 to 77 °C |  |  |  |  |  |  |  |  |  |  |  |  |  |  |  | pest or weed control at 200 ppm [1]: 0%; pest or weed control at 200 ppm ([2]; Colletotrichum orbiculare, in Cucumis sativus, 144 h, read-out: Test B disease control rating, 200 ppm, 100 = 100% disease control, 0 = no control relative to controls): 0%; pest or weed control at 200 ppm [3, 14]: 0%; pest or weed control at 200 ppm ([4]; Zymoseptoria tritici, 528 h, 200 ppm, 100 = 100% disease control, 0 = no control relative to controls, read-out: Test J disease control rating): 0%; pest or weed control at 200 ppm ([5]; Waitea circinata, in Agrostis stolonifera, topical, 144 h, read-out: Test G disease control rating, 200 ppm, 100 = 100% disease control, 0 = no control relative to controls): 0%; pest or weed control at 200 ppm [6, 27]: 0%; pest or weed control at 200 ppm ([7]; Blumeria graminis, in Triticum aestivum, 168 h, read-out: Test L disease control rating, 200 ppm, 100 = 100% disease control, 0 = no control relative to controls): 80%; pest or weed control at 200 ppm [8]: 82%; pest or weed control at 200 ppm [9, 27]: 0%; pest or weed control at 200 ppm [10, 18]: 0%; pest or weed control at 200 ppm ([11]; Parastagonospora nodorum, in Triticum aestivum, topical, 168 h, read-out: Test H disease control rating, 200 ppm, 100 = 100% disease control, 0 = no control relative to controls): 0%
Cc1ccn(-c2nc(Cl)c(C3CCCCC3)n(CC(C)C)c2=O)n1 [compound 294] |  |  |  |  | 0% | 0% | 31% | 95% | 0% | 0% | 0% | 0% | 0% | 0% | 54% | 0% | 
Cc1ccn(-c2nc(Cl)c(CC(C)C)n(CC(C)C)c2=O)n1 [compound 295] |  |  |  |  | 0% | 0% | 0% | 53% | 0% | 0% | 0% | 0% | 0% | 0% | 27% | 0% | 
CCC(C)Cn1c(-c2c(F)cccc2F)c(Cl)nc(C(=O)NC(C)C)c1=O (stereo not shown) [compound 296] |  |  |  |  | 0% | 93% | 100% | 100% | 0% | 0% | 85% | 93% | 0% | 53% | 100% | 100% | 
CCC(C)Cn1c(-c2c(F)cccc2F)c(Cl)nc(C(=O)NCC2CC2)c1=O (stereo not shown) [compound 300] |  |  |  |  | 0% | 93% | 100% | 100% | 16% | 0% | 0% | 97% | 0% | 40% | 100% | 99% | 
CCC(C)CNC(=O)c1nc(Cl)c(-c2c(F)cccc2F)n(CC(C)CC)c1=O (stereo not shown) [compound 301] |  |  |  |  | 0% | 0% | 100% | 98% | 0% | 0% | 0% | 68% | 0% | 0% | 99% | 87% | 
